In publication PMC6821926, “Diaminoquinazoline MMV675968 from Pathogen Box inhibits Acinetobacter baumannii growth through targeting of dihydrofolate reductase” (Scientific Reports, 2019):

What was measured:
Format in all cases: biochemical
[1] = molecular target: T1, A. baumannii dihydrofolate reductase (AbDHFR) (Acinetobacter baumannii, UniProt A0A098SJI9); assay: DHFR activity assay (A340) in lysate of E. coli BL21(DE3) overexpressing AbDHFR
T1 construct: gene folA; AbDHFR expressed from pET15b in E. coli BL21(DE3)
T1 sequence (A0A098SJI9 entry or part of it): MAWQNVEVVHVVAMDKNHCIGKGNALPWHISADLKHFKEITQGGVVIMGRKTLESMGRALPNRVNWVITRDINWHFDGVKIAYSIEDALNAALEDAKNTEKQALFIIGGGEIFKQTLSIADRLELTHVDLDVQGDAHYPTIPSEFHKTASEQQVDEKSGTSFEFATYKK

human DHFR (hDHFR) = molecular target: T2, human DHFR (hDHFR) (Homo sapiens, UniProt P00374); assay: DHFR activity assay (A340) in lysate of E. coli BL21(DE3) overexpressing hDHFR
T2 construct: hDHFR (from pL0035) expressed from pET15b in E. coli BL21(DE3)
T2 sequence (P00374 1-187): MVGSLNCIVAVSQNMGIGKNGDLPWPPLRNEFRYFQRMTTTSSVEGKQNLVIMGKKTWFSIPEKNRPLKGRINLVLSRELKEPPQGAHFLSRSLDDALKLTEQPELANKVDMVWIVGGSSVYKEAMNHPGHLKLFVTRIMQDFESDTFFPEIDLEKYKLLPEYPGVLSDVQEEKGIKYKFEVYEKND

[2] = molecular target: T1, A. baumannii dihydrofolate reductase (AbDHFR); assay: DHFR activity assay (A340) in lysate of E. coli BL21(DE3) overexpressing AbDHFR; also E. coli surrogate growth and DHFR activity in treated A. baumannii

Row | SMILES | IC50 [1] [nM] | IC50 (human DHFR (hDHFR)) [nM] | IC50 [2] [nM]
1 | CCc1nc(N)nc(N)c1-c1ccc(Cl)cc1 [PYR, pyrimethamine] | 81.7 | – | –
2 | COc1ccc(OC)c(NCc2ccc3nc(N)nc(N)c3c2Cl)c1 [MMV675968] | – | 492 | 8.5
